# What was measured:
# human 5-HT1A receptor [1] = biological target: T1, human 5-HT1A receptor (Homo sapiens (Human), UniProt P08908); assay: Test 1: binding activity for human 5-HT1A receptor ([3H]8-OH-DPAT, CHO cell membrane fraction)
# Procedure: (§1) Test 1: Evaluation of Binding Activity for Human 5-HT1A Receptor, Human 5-HT2A Receptor, and Human D2 Receptor
# (§2) Binding affinity of the present compound for human 5-HT1A receptor, human 5-HT2A receptor, and human D2 receptor was measured by the following procedures.
# (§3) Each mixture was incubated at room temperature for 60 minutes. Then, the mixture was added quickly on a glassfiber filter plate (Multiscreen FB, Millipore, Inc.) coated with 0.3% aqueous polyethylenimine, and vacuum-filtered. Radioactivity remaining on the filter was measured with a liquid scintillation counter (PerkinElmer, Inc.). Binding inhibition rate was calculated from the following formula.
# IC50 value was calculated by Hill analysis (Physiology, 1910, 40, 190-200). Ki of each compound was calculated from the following formula. Binding inhibition constant (Ki)=IC50/(1+S/Kd) wherein S is concentration of ligand; Kd is a binding dissociation constant of ligand to membrane, which is calculated from a saturated binding experiment conducted with the same cell membrane. A small Ki value means strong binding ability to a receptor.
# human D2 receptor = human D2 receptor (Homo sapiens (Human), UniProt P14416); assay: Test 1: binding activity for human D2 receptor ([3H]Spiperone, CHO cell membrane fraction); settings: human D2 receptor, [3H]Spiperone
# Procedure: as §1, §2, §3
# Ki of each compound was calculated from the following formula. Binding inhibition constant (Ki)=IC50/(1+S/Kd) wherein S is concentration of ligand; Kd is a binding dissociation constant of ligand to membrane, which is calculated from a saturated binding experiment conducted with the same cell membrane. A small Ki value means strong binding ability to a receptor.
# human 5-HT1A receptor [2] = biological target: T1, human 5-HT1A receptor; assay: Test 2: agonist activity for human 5-HT1A receptor ([35S]GTPγS binding); format: biochemical; settings: for EC50: [35S]GTPγS binding, concentration at which half the activity of Emax was obtained; for Emax at 10 µM: agonist activity in the presence of 10 μM of compound, relative to 100 μmol/L 5-HT
# Procedure: Test 2: Evaluation of Agonist Activity for Human 5-HT1A Receptor
# CHO cell membrane fraction in which human 5-HT1A receptor was expressed as used in Test 1 was purchased. To a buffer containing guanosine diphosphate were added a test compound dissolved in DMSO, each receptor membrane sample diluted with buffer, and [^35S] Guanosine 5′-O-[gamma-thio]triphosphate (GTPγS). The mixture was incubated at room temperature for 60 minutes. Then, the mixture was added quickly on a glassfiber filter plate (Multiscreen FB, Millipore, Inc.), and vacuum-filtered. Radioactivity remaining on the […] was measured with a liquid scintillation counter. Agonist activity was calculated from the following formula.
# [3] = Test 4: metabolic stability test in human hepatic microsome; format: in vitro ADME; settings: 0.1 mg/mL microsome, 0.1 μmol/L compound, 37° C., 30 minutes
# Procedure: Test 4: Metabolic Stability Test in Human Hepatic Microsome
# The stability of the present compound in human hepatic microsome metabolism was evaluated as mentioned below. Human hepatic microsome was obtained from Xenontech. Human hepatic microsome, NADPH, and each test compound were mixed in 25 mmol/L phosphate buffer solution (pH 7.4) to reach the following concentrations as shown below, and the mixture was incubated at 37° C. for 30 minutes. • Human hepatic microsome: 0.1 mg/mL • NAPDH: 3.2 mmol/L • Test compound: 0.1 μmol/L
# The residual ratio of the test compound in each sample after 30 minutes was measured by LC-MS, and the metabolic stability in human hepatic microsome was calculated from the following formula. Metabolic stability in human hepatic microsome (mL/min/mg protein)=−LN (residual ratio)/30/0.1
# hERG channel = hERG channel (Homo sapiens (Human), UniProt Q12809); assay: Test 6-1: inhibitory activity for hERG channel (auto patch clamp, Qpatch); format: cell-based; settings: whole cell auto patch clamp, hERG-CHO cells; read-out: hERG inhibition IC50
# Procedure: Test 6-1: Evaluation of Inhibitory Activity for hERG Channel
# Inhibitory activity of the present compound for hERG channel was measured by whole cell patch clamp method with an auto patch clamp system using CHO cells in which hERG channel involved in human rapidly activating delayed rectifier potassium current (IKr) was forcibly expressed.
# hERG-CHO cells purchased from ChanTest Cop. were cultured in a CO2 incubator at 37° C., and dissociated from a flask with trypsin shortly before the measurement of hERG current, to prepare a cell suspension.
# Extracellular fluid: 2 mmol/L CaCl2, 1 mmol/L MgCl2, 10 mmol/L HEPES, 4 mmol/L KCl, 145 mmol/L NaCl, 10 mmol/L Glucose
# Intracellular fluid: 5.4 mmol/L CaCl2, 1.8 mmol/L MgCl2, 10 mmol/L HEPES, 31 mmol/L KOH, 10 mmol/L EGTA, 120 mmol/L KCl, 4 mmol/L Na2-ATP
# Test compound solution: Test compound was dissolved in DMSO to reach the concentration of 2 mmol/L or 20 mmol/L, in order to prepare a test compound solution. […] (Measurement of Current Value and Data Analysis)
# The cell suspension, the extracellular fluid, the intracellular fluid, and the measurement plate were set in the auto patch clamp system, and hERG current was measured by whole cell patch clamp method. […] Each pulse interval was 15 seconds. The data analysis was carried out with Qpatch Assay Software (Biolin Scientific). The test was carried out by applying incrementally 4 concentrations of each test compound, and the average of the maximum peak tail currents which were obtained from the last 3 stimulations in each concentration was determined as the evaluated data. Based on the current inhibition rate for a pre-applied current at each concentration of each test compound, IC50 value was calculated by Hill equation with the software.
# T1 sequence (P08908 whole entry): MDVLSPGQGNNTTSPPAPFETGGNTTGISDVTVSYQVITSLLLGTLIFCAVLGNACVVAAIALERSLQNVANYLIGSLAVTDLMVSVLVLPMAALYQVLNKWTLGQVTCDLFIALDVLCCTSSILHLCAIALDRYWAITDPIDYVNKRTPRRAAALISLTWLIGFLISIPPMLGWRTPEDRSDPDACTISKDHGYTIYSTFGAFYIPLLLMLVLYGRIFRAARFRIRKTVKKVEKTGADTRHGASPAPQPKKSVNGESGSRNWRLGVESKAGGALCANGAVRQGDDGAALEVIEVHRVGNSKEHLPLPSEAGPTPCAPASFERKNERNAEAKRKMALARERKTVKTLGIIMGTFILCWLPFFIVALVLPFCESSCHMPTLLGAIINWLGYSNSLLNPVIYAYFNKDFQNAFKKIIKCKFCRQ
# Sequence of human D2 receptor (P14416 whole entry): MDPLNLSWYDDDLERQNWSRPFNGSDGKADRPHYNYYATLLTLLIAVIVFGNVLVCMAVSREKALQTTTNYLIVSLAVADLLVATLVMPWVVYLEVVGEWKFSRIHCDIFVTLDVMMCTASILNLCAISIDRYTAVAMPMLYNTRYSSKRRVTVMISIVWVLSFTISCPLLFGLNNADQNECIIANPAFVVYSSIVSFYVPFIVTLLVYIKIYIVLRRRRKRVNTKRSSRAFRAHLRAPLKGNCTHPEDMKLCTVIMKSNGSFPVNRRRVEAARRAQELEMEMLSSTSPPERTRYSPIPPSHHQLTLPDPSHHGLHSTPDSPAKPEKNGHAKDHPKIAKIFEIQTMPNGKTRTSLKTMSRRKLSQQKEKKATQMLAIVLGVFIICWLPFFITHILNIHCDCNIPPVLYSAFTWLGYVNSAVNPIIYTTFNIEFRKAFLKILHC
# Sequence of hERG channel (Q12809 whole entry): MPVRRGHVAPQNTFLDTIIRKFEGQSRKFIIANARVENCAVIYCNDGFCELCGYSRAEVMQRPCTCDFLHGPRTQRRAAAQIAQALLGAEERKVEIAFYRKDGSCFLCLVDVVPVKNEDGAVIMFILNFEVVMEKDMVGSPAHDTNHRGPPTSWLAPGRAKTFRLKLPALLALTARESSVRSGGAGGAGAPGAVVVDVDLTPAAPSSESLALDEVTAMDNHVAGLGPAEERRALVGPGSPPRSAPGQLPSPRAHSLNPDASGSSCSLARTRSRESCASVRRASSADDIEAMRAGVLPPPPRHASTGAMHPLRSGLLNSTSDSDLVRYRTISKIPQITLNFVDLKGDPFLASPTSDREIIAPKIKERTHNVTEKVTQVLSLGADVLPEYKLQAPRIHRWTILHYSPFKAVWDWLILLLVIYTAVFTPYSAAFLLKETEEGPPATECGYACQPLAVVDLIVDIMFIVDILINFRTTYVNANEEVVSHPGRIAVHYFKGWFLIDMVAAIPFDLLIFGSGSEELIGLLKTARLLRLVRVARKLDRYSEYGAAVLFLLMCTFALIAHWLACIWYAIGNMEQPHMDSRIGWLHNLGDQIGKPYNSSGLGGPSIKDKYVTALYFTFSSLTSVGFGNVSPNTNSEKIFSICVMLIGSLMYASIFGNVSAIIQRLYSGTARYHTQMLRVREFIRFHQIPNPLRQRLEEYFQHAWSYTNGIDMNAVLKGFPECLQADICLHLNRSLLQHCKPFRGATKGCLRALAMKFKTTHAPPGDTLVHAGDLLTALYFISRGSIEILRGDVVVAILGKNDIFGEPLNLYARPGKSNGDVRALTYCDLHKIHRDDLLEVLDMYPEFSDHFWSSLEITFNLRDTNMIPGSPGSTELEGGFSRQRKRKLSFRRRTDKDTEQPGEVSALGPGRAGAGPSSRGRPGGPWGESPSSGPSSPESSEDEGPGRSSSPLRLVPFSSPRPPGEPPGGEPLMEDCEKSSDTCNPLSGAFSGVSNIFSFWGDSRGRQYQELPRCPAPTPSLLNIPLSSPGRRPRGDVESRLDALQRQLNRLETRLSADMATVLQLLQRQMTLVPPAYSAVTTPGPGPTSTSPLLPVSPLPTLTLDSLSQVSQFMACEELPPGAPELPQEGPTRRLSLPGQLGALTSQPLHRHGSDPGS
SMILES,Ki (human 5-HT1A receptor [1]),Ki (human D2 receptor),EC50 (human 5-HT1A receptor [2]),Emax at 10 µM (human 5-HT1A receptor [2]),Metabolic stability in human hepatic microsome [3],IC50 (hERG channel)
"O=C1c2cn[nH]c2CCCN1CCN1CCC(c2noc3ccccc23)CC1 [Example 97, 5-{2-[4-(1,2-Benzoisoxazol-3-yl)piperidin-1-yl]ethyl}-5,6,7,8-tetrahydropyrazolo[4,3-c]azepin-4(1H)-one]",17.6 nM,136 nM,447 nM,42%,<0.01 mL/min/mg protein,2600 nM
O=c1c2ncccc2ccn1CCN1CCC(c2noc3cc(F)ccc23)CC1 [Example 12],7.03 nM,311 nM,96 nM,32%,0.02 mL/min/mg protein,300 nM
Cc1ccc2onc(C3CCN(CCN4CCc5cccnc5C4=O)CC3)c2c1 [Example 89],3.44 nM,2250 nM,53.8 nM,39%,0.050 mL/min/mg protein,1300 nM
"COc1c2c(nn1C)CCN(CCN1CCN(c3nsc4ccccc34)CC1)C2=O [Example 106, 5-{2-[4-(1,2-Benzoisothiazol-3-yl)piperazin-1-yl]ethyl}-3-methoxy-2-methyl-2,5,6,7-tetrahydro-4H-pyrazolo[4,3-c]pyridin-4-one]",1.63 nM,804 nM,38.4 nM,74%,0.244 mL/min/mg protein,4800 nM
O=C1c2occc2CCN1CCN1CCC(c2noc3ccccc23)CC1 [Example 127],35.7 nM,203 nM,56.9 nM,48%,<0.05 mL/min/mg protein,600 nM
Cn1cnc2c1C(=O)N(CCN1CCN(c3nsc4ccccc34)CC1)CCC2 [Example 55],13.6 nM,697 nM,4.3 nM,50%,0.161 mL/min/mg protein,> 10000 nM
CC(C)c1nc2c(o1)C(=O)N(CCN1CCN(c3nsc4ccccc34)CC1)CC2 [Example 66],8.68 nM,841 nM,78.2 nM,67%,0.357 mL/min/mg protein,2100 nM
Cc1nccc2c1C(=O)N(CCN1CCC(c3noc4ccccc34)CC1)CC2 [Example 87],0.12 nM,94 nM,,76%,0.458 mL/min/mg protein,500 nM
Cn1cc2c(n1)C(=O)N(CCN1CCC(c3noc4ccccc34)CC1)CC2 [Example 156],5.17 nM,743 nM,31 nM,46%,<0.05 mL/min/mg protein,2100 nM
O=C1c2ncccc2CCN1CCN1CCC(c2noc3ccc(F)cc23)CC1 [Example 5],5.78 nM,7830 nM,91.6 nM,60%,<0.01 mL/min/mg protein,2400 nM

# More lines, main results first:
Ki (human 5-HT1A receptor [1]),Ki (human D2 receptor),EC50 (human 5-HT1A receptor [2]),Emax at 10 µM (human 5-HT1A receptor [2]),Metabolic stability in human hepatic microsome [3],SMILES,IC50 (hERG channel)
0.77 nM,1890 nM,4.72 nM,52%,0.091 mL/min/mg protein,COc1cc2c(cn1)C(=O)N(CCN1CCN(c3noc4ccccc34)CC1)CC2 [Example 20],5400 nM
0.14 nM,71 nM,0.84 nM,60%,0.413 mL/min/mg protein,Cc1cc2c(n1C)CCCN(CCN1CCN(c3nsc4ccccc34)CC1)C2=O [Example 167],1800 nM
9.36 nM,826 nM,15.1 nM,41%,0.149 mL/min/mg protein,"CCc1ncc2c(n1)CCN(CCN1CCN(c3nsc4ccccc34)CC1)C2=O [Example 93, 6-{2-[4-(1,2-Benzoisothiazol-3-yl)piperazin-1-yl]ethyl}-2-ethyl-7,8-dihydropyrido[4,3-d]pyrimidin-5(6H)-one]",6600 nM
0.25 nM,852 nM,1.1 nM,74%,0.194 mL/min/mg protein,"N#Cc1cc2c(cn1)C(=O)N(CCN1CCN(c3nsc4ccccc34)CC1)CC2 [Example 102, 7-{2-[4-(1,2-Benzoisothiazol-3-yl)piperazin-1-yl]ethyl}-8-oxo-5,6,7,8-tetrahydro-2,7-naphthyridine-3-carbonitrile]",1000 nM
6.5 nM,791 nM,16 nM,73%,<0.01 mL/min/mg protein,Cn1ncc2c1CCN(CCN1CCN(c3nsc4ccccc34)CC1)C2=O [Example 63],7800 nM
6.9 nM,780 nM,42.1 nM,51%,0.092 mL/min/mg protein,O=C1c2cncnc2CCN1CCN1CCN(c2nsc3ccccc23)CC1 [Example 58],6000 nM
1.7 nM,134 nM,9.8 nM,63%,0.056 mL/min/mg protein,Cn1ccc2c1CCN(CCN1CCN(c3nsc4ccccc34)CC1)C2=O [Example 61],> 10000 nM

# Source: US10745401B2, “Condensed lactam derivative” (Sumitomo Dainippon Pharma Co., Ltd., priority 2018, dated 2020)
